From the NIST ThermoML archive (doi:10.1016/j.jct.2011.08.028)

Experiments:
[1] = refractive index (Na D-line) (dimensionless); xn = mol fraction of the nth substance listed; details: 298.15 K, 101 kPa, Liquid, Standard Abbe refractometry
[2] = xn = mol fraction of the nth substance listed; details: 298.15 K, 101 kPa, Liquid; for speed of sound: Sing-around technique in a fixed-path interferometer; for mass density: Vibrating tube method

CCCn1cc[n+](C)c1.O=S(=O)([N-]S(=O)(=O)C(F)(F)F)C(F)(F)F + CC(C)O
Details | mass density, [2] [kg/m3] | refractive index, [1] | speed of sound, [2] [m/s]
x2 = 0 | 1474.44 | 1.42525 | 1232
x2 = 0.0493 | 1463.7 | 1.42452 | 1228
x2 = 0.0921 | 1454.1 | 1.42385 | 1226
x2 = 0.291 | 1401.23 | 1.42016 | 1212
x2 = 0.4093 | 1360.46 | 1.41732 | 1202
x2 = 0.5071 | 1318.46 | 1.41439 | 1191
x2 = 0.6113 | 1262.2 | 1.41043 | 1178
x2 = 0.6964 | 1203.91 | 1.40624 | 1166
x2 = 0.803 | 1106.76 | 1.39926 | 1148
x2 = 0.9009 | 979.02 | 1.39013 | 1135
x2 = 0.9503 | 892.06 | 1.38375 | 1134

CCCn1cc[n+](C)c1.O=S(=O)([N-]S(=O)(=O)C(F)(F)F)C(F)(F)F + CCCO
Details | mass density, [2] [kg/m3] | refractive index, [1] | speed of sound, [2] [m/s]
x2 = 0 | 1474.44 | 1.42525 | 1232
x2 = 0.0787 | 1457.82 | 1.42424 | 1228
x2 = 0.1022 | 1452.69 | 1.42391 | 1227
x2 = 0.247 | 1417.04 | 1.42164 | 1220
x2 = 0.39 | 1372.22 | 1.41887 | 1212
x2 = 0.442 | 1352.74 | 1.41758 | 1208
x2 = 0.4877 | 1333.71 | 1.41661 | 1205
x2 = 0.569 | 1294.62 | 1.41422 | 1198
x2 = 0.6455 | 1250.12 | 1.41148 | 1191
x2 = 0.703 | 1209.58 | 1.40897 | 1187
x2 = 0.75 | 1170.92 | 1.40667 | 1183
x2 = 0.8048 | 1117.65 | 1.40345 | 1179
x2 = 0.8492 | 1066.16 | 1.40025 | 1178
